Data: US20030068385A1, “Accelerated action fatty acid (AAFA) promotes health of normal tissues and minimizes the toxic side effects of chemotherapy” (priority 2001, published 2003)
Structures can show the parent of a compound that is named as a salt. Each block holds one compound with its values, some of them ahead of it.

Key:
[1] = Body weight gain during CPT-11 treatment on AAFA diets (Example 1); type: in vivo; settings: male Swiss mice; 0-3% AAFA diets; CPT-11 60 mg/kg IV once each four days for 2 weeks
Protocol: 40 male Swiss mice, 6 weeks old, were obtained and earmarked for unique identification. Mice were housed 5/cage in Laboratory Animal Resources facilities. After 24 hours acclimation, mice were weighed and the food was changed to one of four defined diets. The AIN-76 based, 10% total fat diets contained: 0% AAFA+10% corn oil, 1% AAFA+9% corn oil, 2% AAFA+8% corn oil or 3% AAFA+7% corn oil. Two cages (10 mice) were designated to consume each diet. All mice were weighed three times weekly throughout the experiment.
Mice consumed the diet for 2 weeks then treatment with CPT-11 commenced for half of the mice (1 cage of 5 mice) on each diet. CPT-11 was administered at 60 mg/kg body weight, IV in a lateral tail vein, once each four days for 2 weeks. Control mice received an equivalent volume of the CPT-11 vehicle.

[2] = Fecal water content (Example 1); type: in vivo; settings: Swiss mice treated with CPT-11 60 mg/kg IV; compared with mice not treated with CPT-11; not significant by ANOVA
Protocol: (§1) Mice were killed 24 hours after the last CPT-11 treatment. At necropsy, mice were weighed, anesthesized and blood was drawn via cardiac puncture. Peripheral blood was placed in an EDTA-containing tube and sent to Laboratory Animal Resources for complete blood counts. The liver, spleen, testes and kidneys were removed, weighed, then part of each organ was fixed in Omnifix® and a part was quick frozen in liquid nitrogen. The brain was removed and frozen in liquid nitrogen. The colon was resected, split open longitudinally and placed serosal side down on a card. Feces were removed from the colon, placed in a tared pan and weighed, then placed in a 100° C. vacuum oven for drying to constant weight. The colon and a section of duodenum were fixed in Omnifix®. The fixed colon and duodenum were oriented in cassettes then processed to paraffin blocks. Paraffin sections were cut 4 μm thick, histological slides of the colon and duodenum were prepared and stained with H & E or periodic acid-Schiff stain.
The initial wet weight and final constant weight of the dried feces was used to calculate the % of water in the feces of each mouse as an assay of intestinal function. […] Thus, the treatment helped return the values closer to control (no CPT-11 treatment) group values.

duodenum crypts = experiment: Apoptotic figures in the duodenum (Example 1); type: in vivo; settings: Swiss mice, CPT-11 60 mg/kg IV; two way ANOVA
Protocol: as §1
The number of apoptotic cells found in 10 complete, midaxially sectioned duodenum crypts was counted as an indication of intestinal damage. […] Thus, the treatment helped return the values closer to control (no CPT-11 treatment) group values.

[3] = Liver weight as percent of body weight (Example 1); type: in vivo; settings: Swiss mice treated with CPT-11; compared with mice not treated with CPT-11
Protocol: as §1
The weight of the liver was expressed as a percent of body weight. […] Thus, the treatment returned the values to control (no CPT-11 treatment) group values.

[4] = Blood counts: WBC, RBC, hematocrit (Example 1); type: in vivo; settings: Swiss mice treated with CPT-11; AAFA prior to and during CPT-11
Protocol: as §1

[5] = test system: peripheral blood erythrocytes; experiment: Micronuclei and polychromataphilic erythrocytes in peripheral blood; type: in vivo; settings: Swiss mice treated with CPT-11; compared with mice that did not receive CPT-11
Protocol: After completion of blood counts, a thin smear of peripheral blood was made on a microscope slide, the smear was air-dried and was then stained for 5 minutes with 0.01 mg/ml acridine orange in phosphate buffered saline (pH 7.0). Micronuclei and polychomataphilic erythrocytes (PCE) were identified on the acridine orange stained smears of peripheral blood. Using fluorescent microscopy and a 100X oil objective, the mature erythrocytes, lacking either DNA or RNA are green, the RNA containing PCE are reddish and the DNA containing micronuclei are bright yellow. Fields containing a single layer of erythrocytes were identified. At least 8 standard fields (300, 400 or 500 cells) were identified on each slide and the number or micronuclei or PCEs were counted and recorded.

Coat quality (Example 1) = type: in vivo; settings: Swiss mice treated with CPT-11; compared with normal control group
From the text: The group of mice that consumed the ‘normal’ diet containing 10% corn oil and 0% AAFA that were not treated with CPT-11 (normal control group) was compared to the groups of mice treated with CPT-11 that consumed each diet. […] Thus, the treatment helped return the animal grooming behavior closer to the normal untreated control group without CPT-11. This generally reflects that the animals were “feeling better”.

[6] = cited from earlier work
[7] = test system: A549 human lung cancer xenografts; experiment: Growth rate of A549 xenografts in nude mice (Example 3); type: in vivo
Protocol: A549 human lung cancer cells (American Type Culture Collection, Rockville, Md.) were cultured for injection in nude mice. The culture medium was an enriched L15:SMEM base media supplemented with other factors as described previously.
Twenty five male nude mice were allowed to acclimate for one week then were inoculated with tumor cells. The mice were housed under aseptic conditions (positive air pressure in a designated nude mouse room, cages, bedding, water and food were sterilized, cages had microisolator tops) in a temperature (24° C.) and light controlled (12 h light per day) room. All mouse handling was carried out under a laminar flow hood. Our Institutional Animal Care and Use Committee approved all animal use and handling before commencing the experiment. The animal care facilities are accredited by the American Association for the Accreditation of Laboratory Animal Care. Experimental Design-Cultured A549 cells were harvested, rinsed then suspended in serum-free L15:SMEM culture medium. Cells in suspension were counted using a hemocytometer and the cell count was adjusted to […]. The suspension was kept well mixed during the time of injection. […]
Tumor lengths and widths and body weights were measured three times weekly. […] Tumor sizes were calculated using the formula for the volume of a prolate spheroid, […]

[8] = patients or other mammals treated with CPT-11

mean fecal water content (% of water in the feces) [2]: higher
liver weight as percent of body weight [3]: significantly larger
hematocrit [4]: significantly decreased
red blood cell count [4]: significantly decreased
white blood cell count [4]: significantly decreased
coat quality (Coat quality (Example 1)): scruffy
Compound: CCc1c2c(nc3ccc(OC(=O)N4CCC(N5CCCCC5)CC4)cc13)-c1cc3c(c(=O)n1C2)COC(=O)[C@]3(O)CC [CPT-11, irinotecan hydrochloride]
weight gained during the time of CPT-11 treatment [1]: not significantly different
number of apoptotic cells in 10 duodenum crypts (duodenum crypts): significantly increased
micronuclei (MN) in the peripheral blood [5]: significantly higher
polychromataphilic erythrocytes (PCE) in the peripheral blood [5]: significantly higher
patients with anemia [6, 8]: 67%
patients with leukopenia [6, 8]: 91%
patients reporting asthenia (tiredness or weakness) ([6]; side effect of CPT-11 treatment): ~90%

Compound: COc1cccc2c1C(=O)c1c(O)c3c(c(O)c1C2=O)C[C@@](O)(C(=O)CO)C[C@@H]3O[C@H]1C[C@H](N)[C@H](O)[C@H](C)O1 [DOX, doxorubicin]
growth of A549 tumors ([7]; mice consuming corn oil, treated with DOX): halted the growth

Compound: ferric citrate [iron]
effect of supplemental iron on A549 tumor growth ([7]; mice fed corn oil, supplemental iron and DOX): counteracted the growth inhibitory effect
